The data set in a line: in vivo. Conditions: BALB/c, mouse, sc; for AUC(0-t): AUC0–24.

SMILES strings stand for the structures.

We go through one molecule from PMC10222987 (Viruses, 2023).

With `O=C1c2c(O)c(=O)ccn2N([C@@H]2c3ccccc3SCc3c2ccc(F)c3F)[C@@H]2COCCN12` [baloxavir acid], the AUC(0-t) – broadly, exposure summed from dosing to a finite time, without extrapolation to infinity – (0.125 mg/kg) came out at 267 ng·h/mL; the AUC(0-t) (0.25 mg/kg) was 535 ng·h/mL; the AUC(0-t) (0.5 mg/kg) was determined as 961 ng·h/mL; the AUC(0-t) (1 mg/kg) is 1810 ng·h/mL; the AUC(0-t) (8 mg/kg) stood at 6380 ng·h/mL; the AUC(0-t) (16 mg/kg) stood at 11100 ng·h/mL. The exposure AUC(0-t) reads like this: (32 mg/kg) 8860 ng·h/mL; (64 mg/kg) 12600 ng·h/mL. The peak concentration (Cmax) – broadly, the peak of the concentration-time curve – stood at 18.7 ng/mL (0.125 mg/kg); 37.3 ng/mL (0.25 mg/kg); 66.1 ng/mL (0.5 mg/kg); 124 ng/mL (1 mg/kg); 222 ng/mL (2 mg/kg); 417 ng/mL (4 mg/kg). Moreover, the peak concentration (Cmax) reads like this: (8 mg/kg) 414 ng/mL; (16 mg/kg) 726 ng/mL; (32 mg/kg) 682 ng/mL; (64 mg/kg) 938 ng/mL.
